Drawing on PubChem BioAssay AID2321 (Johns Hopkins Ion Channel Center, 2010), this text covers percent unblocked for nine compounds.

Active and inactive are the calls of the source. No rule for the calls is given here.

In this test the target is Voltage-gated inwardly rectifying potassium channel KCNH2 (Homo sapiens) (UniProt Q12809). The test can be described thus: hERG current rescue from dofetilide block, late-stage follow-up, orthogonal assay, cell-based, manual patch clamp, HEK293-hERG (AID 2321). The settings on record: at 10 µM, hits give high values. (In general: Block of hERG is tested as a sign of cardiac risk.)
Chain of Voltage-gated inwardly rectifying potassium channel KCNH2 (Homo sapiens) (Q12809 whole entry, looked up): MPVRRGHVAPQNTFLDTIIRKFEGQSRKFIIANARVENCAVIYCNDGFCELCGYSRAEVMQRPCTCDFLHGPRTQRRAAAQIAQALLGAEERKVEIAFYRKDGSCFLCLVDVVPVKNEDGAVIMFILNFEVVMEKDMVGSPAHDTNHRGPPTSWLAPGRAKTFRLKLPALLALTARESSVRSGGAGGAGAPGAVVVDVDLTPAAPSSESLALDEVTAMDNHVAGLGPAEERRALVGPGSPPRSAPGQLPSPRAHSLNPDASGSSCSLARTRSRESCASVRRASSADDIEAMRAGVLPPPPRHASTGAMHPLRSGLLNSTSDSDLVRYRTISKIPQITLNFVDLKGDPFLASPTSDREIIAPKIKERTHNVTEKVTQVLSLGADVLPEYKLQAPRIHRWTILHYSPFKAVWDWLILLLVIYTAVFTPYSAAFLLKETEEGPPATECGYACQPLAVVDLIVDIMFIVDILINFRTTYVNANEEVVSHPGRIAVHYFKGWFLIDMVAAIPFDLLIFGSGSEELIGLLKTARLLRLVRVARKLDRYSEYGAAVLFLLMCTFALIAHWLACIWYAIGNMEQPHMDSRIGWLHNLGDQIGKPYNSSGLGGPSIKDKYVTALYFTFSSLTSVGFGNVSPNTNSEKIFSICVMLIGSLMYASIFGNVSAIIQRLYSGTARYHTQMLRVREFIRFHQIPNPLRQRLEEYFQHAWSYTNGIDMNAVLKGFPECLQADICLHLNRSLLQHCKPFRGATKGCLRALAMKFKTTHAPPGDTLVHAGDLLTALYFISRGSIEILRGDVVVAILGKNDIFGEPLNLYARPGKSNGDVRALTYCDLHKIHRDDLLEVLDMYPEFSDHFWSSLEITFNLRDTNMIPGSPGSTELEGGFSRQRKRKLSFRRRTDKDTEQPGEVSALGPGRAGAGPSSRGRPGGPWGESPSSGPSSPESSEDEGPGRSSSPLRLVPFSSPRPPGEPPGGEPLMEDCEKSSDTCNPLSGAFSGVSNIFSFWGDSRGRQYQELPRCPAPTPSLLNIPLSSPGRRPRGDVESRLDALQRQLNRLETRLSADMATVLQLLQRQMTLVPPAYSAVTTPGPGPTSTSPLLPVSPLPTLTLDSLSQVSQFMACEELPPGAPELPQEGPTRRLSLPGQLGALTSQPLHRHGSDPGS
On to `O=C(O)c1ccccc1Nc1nc2cc(Cl)ccc2o1`, for which the percent unblocked was 0% (inactive).
The value for `Cc1ccc(C(=O)Nc2nc3ccccc3c(=O)s2)cc1` was 0% (inactive); that for `Clc1ccc2oc(Nc3ccccn3)nc2c1` was 0% (inactive); that for `COc1ccccc1NC(=S)NC(=O)c1ccc(-c2ccc(Cl)cc2)o1` was 0% (inactive).
With `CN(c1ccccc1)c1nc2cc(Cl)ccc2o1`, the percent unblocked was 0% (inactive).
On to `O=C(COc1ccc2ccccc2c1Br)Nc1cccnc1`, for which the percent unblocked is 0% (inactive).
In the case of `COc1ccc(OC)c(NC(=S)NC(=O)c2ccc(Br)o2)c1`, the percent unblocked is 0% (inactive).
The figure for `O=C(O)c1ccc(Nc2nc3cc(Cl)ccc3o2)cc1` is 0% (inactive).
With `O=C(O)c1cc(Cl)ccc1Nc1nc2cc(Cl)ccc2o1`, the percent unblocked was 0% (inactive).
